In ChEMBL document CHEMBL2413072, “Synthesis and in vitro anticancer studies of novel C-2 arylidene congeners of lantadenes” (2013):
Activity calls are given as the source filed them. No cut-off for these calls is given here.

How the values were obtained:
Type in all cases: functional
MDA-MB-468 [1] = test: Growth inhibition of human MDA-MB-468 cells assessed as growth inhibition at 10 uM by sulforhodamine B assay; settings: read-out: GI
T47D = test: Growth inhibition of human T47D cells assessed as growth inhibition at 10 uM by sulforhodamine B assay; settings: read-out: GI
BT-549 = test: Growth inhibition of human BT549 cells assessed as growth inhibition at 10 uM by sulforhodamine B assay; settings: read-out: GI
[2] = Growth inhibition of human Hs 578T cells assessed as growth inhibition at 10 uM by sulforhodamine B assay; settings: read-out: GI
MDA-MB-231 = test: Growth inhibition of human MDA-MB-231 cells assessed as growth inhibition at 10 uM by sulforhodamine B assay; settings: read-out: GI
PC-3 [3] = test: Growth inhibition of human PC3 cells assessed as growth inhibition at 10 uM by sulforhodamine B assay; settings: read-out: GI
RXF 393 [4] = test: Growth inhibition of human RXF393 cells assessed as growth inhibition at 10 uM by sulforhodamine B assay; settings: read-out: GI
ACHN = test: Growth inhibition of human ACHN cells assessed as growth inhibition at 10 uM by sulforhodamine B assay; settings: read-out: GI
[5] = Growth inhibition of human NCI-ADR-RES cells assessed as growth inhibition at 10 uM by sulforhodamine B assay; settings: read-out: GI
OVCAR-8 = test: Growth inhibition of human OVCAR8 cells assessed as growth inhibition at 10 uM by sulforhodamine B assay; settings: read-out: GI
CCRF-CEM = test: Growth inhibition of human CCRF-CEM cells assessed as cell growth at 10 uM by sulforhodamine B assay; settings: read-out: Activity
OVCAR-5 = test: Growth inhibition of human OVCAR5 cells assessed as growth inhibition at 10 uM by sulforhodamine B assay; settings: read-out: GI
OVCAR-4 [6] = test: Growth inhibition of human OVCAR4 cells assessed as growth inhibition at 10 uM by sulforhodamine B assay; settings: read-out: GI
SK-MEL-5 = test: Growth inhibition of human SK-MEL-5 cells assessed as growth inhibition at 10 uM by sulforhodamine B assay; settings: read-out: GI
SK-MEL-2 = test: Growth inhibition of human SK-MEL-2 cells assessed as growth inhibition at 10 uM by sulforhodamine B assay; settings: read-out: GI
LOX IMVI [7] = test: Growth inhibition of human LOXIMVI cells assessed as growth inhibition at 10 uM by sulforhodamine B assay; settings: read-out: GI
U-251 = test: Growth inhibition of human U251 cells assessed as growth inhibition at 10 uM by sulforhodamine B assay; settings: read-out: GI
SNB-75 [8] = test: Growth inhibition of human SNB75 cells assessed as growth inhibition at 10 uM by sulforhodamine B assay; settings: read-out: GI
SNB-19 = test: Growth inhibition of human SNB19 cells assessed as growth inhibition at 10 uM by sulforhodamine B assay; settings: read-out: GI
SF-295 [9] = test: Growth inhibition of human SF295 cells assessed as growth inhibition at 10 uM by sulforhodamine B assay; settings: read-out: GI
HT-29 = test: Growth inhibition of human HT-29 cells assessed as growth inhibition at 10 uM by sulforhodamine B assay; settings: read-out: GI
HCT-15 = test: Growth inhibition of human HCT15 cells assessed as growth inhibition at 10 uM by sulforhodamine B assay; settings: read-out: GI
HCT-116 [10] = test: Growth inhibition of human HCT116 cells assessed as growth inhibition at 10 uM by sulforhodamine B assay; settings: read-out: GI
[11] = Growth inhibition of human HCC2998 cells assessed as growth inhibition at 10 uM by sulforhodamine B assay; settings: HCC 2998, read-out: GI
COLO 205 = test: Growth inhibition of human COLO205 cells assessed as growth inhibition at 10 uM by sulforhodamine B assay; settings: read-out: GI
A549 [12] = test: Growth inhibition of human A549/ATCC cells assessed as growth inhibition at 10 uM by sulforhodamine B assay; settings: read-out: GI
SR [13] = test: Growth inhibition of human SR cells assessed as growth inhibition at 10 uM by sulforhodamine B assay; settings: read-out: GI
K562 = test: Growth inhibition of human K562 cells assessed as growth inhibition at 10 uM by sulforhodamine B assay; settings: read-out: GI
HL-60(TB) = test: Growth inhibition of human HL-60(TB) cells assessed as growth inhibition at 10 uM by sulforhodamine B assay
MDA-MB-468 [14] = test: Growth inhibition of human MDA-MB-468 cells assessed as cell growth at 10 uM by sulforhodamine B assay; settings: read-out: Activity
[15] = Growth inhibition of human Hs 578T cells assessed as cell growth at 10 uM by sulforhodamine B assay; settings: read-out: Activity
DU-145 = test: Growth inhibition of human DU145 cells assessed as cell growth at 10 uM by sulforhodamine B assay; settings: read-out: Activity
PC-3 [16] = test: Growth inhibition of human PC3 cells assessed as cell growth at 10 uM by sulforhodamine B assay; settings: read-out: Activity
UO-31 = test: Growth inhibition of human UO31 cells assessed as cell growth at 10 uM by sulforhodamine B assay; settings: read-out: Activity
RXF 393 [17] = test: Growth inhibition of human RXF393 cells assessed as cell growth at 10 uM by sulforhodamine B assay; settings: read-out: Activity
CAKI-1 = test: Growth inhibition of human CAKI-1 cells assessed as cell growth at 10 uM by sulforhodamine B assay; settings: read-out: Activity
A498 = test: Growth inhibition of human A498 cells assessed as cell growth at 10 uM by sulforhodamine B assay; settings: read-out: Activity
786-0 = test: Growth inhibition of human 786-0 cells assessed as cell growth at 10 uM by sulforhodamine B assay; settings: read-out: Activity
OVCAR-4 [18] = test: Growth inhibition of human OVCAR4 cells assessed as cell growth at 10 uM by sulforhodamine B assay; settings: read-out: Activity
UACC-257 = test: Growth inhibition of human UACC257 cells assessed as cell growth at 10 uM by sulforhodamine B assay; settings: read-out: Activity
LOX IMVI [19] = test: Growth inhibition of human LOXIMVI cells assessed as cell growth at 10 uM by sulforhodamine B assay; settings: read-out: Activity
SNB-75 [20] = test: Growth inhibition of human SNB75 cells assessed as cell growth at 10 uM by sulforhodamine B assay; settings: read-out: Activity
SF-295 [21] = test: Growth inhibition of human SF295 cells assessed as cell growth at 10 uM by sulforhodamine B assay; settings: read-out: Activity
HCT-116 [22] = test: Growth inhibition of human HCT116 cells assessed as cell growth at 10 uM by sulforhodamine B assay; settings: read-out: Activity
NCI-H460 = test: Growth inhibition of human NCI-H460 cells assessed as cell growth at 10 uM by sulforhodamine B assay; settings: read-out: Activity
NCI-H322M = test: Growth inhibition of human NCI-H322M cells assessed as cell growth at 10 uM by sulforhodamine B assay; settings: read-out: Activity
HOP-62 = test: Growth inhibition of human HOP62 cells assessed as cell growth at 10 uM by sulforhodamine B assay; settings: read-out: Activity
A549 [23] = test: Growth inhibition of human A549/ATCC cells assessed as cell growth at 10 uM by sulforhodamine B assay; settings: read-out: Activity
SR [24] = test: Growth inhibition of human SR cells assessed as cell growth at 10 uM by sulforhodamine B assay; settings: read-out: Activity

C/C=C(/C)C(=O)O[C@@H]1CC(C)(C)C[C@H]2C3=CC[C@@H]4[C@@]5(C)CCC(=O)C(C)(C)[C@@H]5CC[C@@]4(C)[C@]3(C)CC[C@@]12C(=O)O [LANTADENE A]
inhibition of growth at 10 µM (MDA-MB-468 [1]): 49.2% | inhibition of growth at 10 µM (T47D): 36.1% | inhibition of growth at 10 µM (BT-549): 56% | inhibition of growth at 10 µM [2]: 21.2% | inhibition of growth at 10 µM (MDA-MB-231): 24.3% | inhibition of growth at 10 µM (PC-3 [3]): 62.8% | inhibition of growth at 10 µM (RXF 393 [4]): 11.5% | inhibition of growth at 10 µM (ACHN): 46.1% | inhibition of growth at 10 µM [5]: 26.9% | inhibition of growth at 10 µM (OVCAR-8): 36.3% | growth at 10 µM (CCRF-CEM): 43.6% | inhibition of growth at 10 µM (OVCAR-5): < 10% | inhibition of growth at 10 µM (OVCAR-4 [6]): 23.1% | inhibition of growth at 10 µM (SK-MEL-5): 61.3% | inhibition of growth at 10 µM (SK-MEL-2): 22.9% | inhibition of growth at 10 µM (LOX IMVI [7]): 38.2% | inhibition of growth at 10 µM (U-251): 39.9% | inhibition of growth at 10 µM (SNB-75 [8]): 13.1% | inhibition of growth at 10 µM (SNB-19): 40.6% | inhibition of growth at 10 µM (SF-295 [9]): 72.3% | inhibition of growth at 10 µM (HT-29): 32.1% | inhibition of growth at 10 µM (HCT-15): 69.8% | inhibition of growth at 10 µM (HCT-116 [10]): 66% | inhibition of growth at 10 µM [11]: 38.6% | inhibition of growth at 10 µM (COLO 205): 22% | inhibition of growth at 10 µM (A549 [12]): 60.8% | inhibition of growth at 10 µM (SR [13]): 30.5% | inhibition of growth at 10 µM (K562): 55.9% | growth inhibition (GI) (HL-60(TB)): Active | growth at 10 µM (MDA-MB-468 [14]): 50.8% | growth at 10 µM [15]: 78.8% | growth at 10 µM (DU-145): 82.6% | growth at 10 µM (PC-3 [16]): 37.2% | growth at 10 µM (UO-31): 42.6% | growth at 10 µM (RXF 393 [17]): 88.5% | growth at 10 µM (CAKI-1): 48.4% | growth at 10 µM (A498): 76.2% | growth at 10 µM (786-0): 44.5% | growth at 10 µM (OVCAR-4 [18]): 76.9% | growth at 10 µM (UACC-257): 70% | growth at 10 µM (LOX IMVI [19]): 61.8% | growth at 10 µM (SNB-75 [20]): 86.9% | growth at 10 µM (SF-295 [21]): 27.6% | growth at 10 µM (HCT-116 [22]): 34% | growth at 10 µM (NCI-H460): 51.5% | growth at 10 µM (NCI-H322M): 68.5% | growth at 10 µM (HOP-62): 75.6% | growth at 10 µM (A549 [23]): 39.2% | growth at 10 µM (SR [24]): 69.5%

CC1(C)C[C@@H](O)[C@]2(C(=O)O)CC[C@]3(C)C(=CC[C@@H]4[C@@]5(C)CC[C@H](O)C(C)(C)[C@@H]5CC[C@]43C)[C@@H]2C1
inhibition of growth at 10 µM (MDA-MB-468 [1]): 88.8% | inhibition of growth at 10 µM (T47D): < 10% | inhibition of growth at 10 µM (BT-549): < 10% | inhibition of growth at 10 µM [2]: < 10% | inhibition of growth at 10 µM (MDA-MB-231): < 10% | inhibition of growth at 10 µM (PC-3 [3]): 23.5% | inhibition of growth at 10 µM (RXF 393 [4]): < 10% | inhibition of growth at 10 µM (ACHN): < 10% | inhibition of growth at 10 µM [5]: < 10% | inhibition of growth at 10 µM (OVCAR-8): < 10% | growth at 10 µM (CCRF-CEM): 88.4% | inhibition of growth at 10 µM (OVCAR-5): < 10% | inhibition of growth at 10 µM (OVCAR-4 [6]): < 10% | inhibition of growth at 10 µM (SK-MEL-5): < 10% | inhibition of growth at 10 µM (SK-MEL-2): < 10% | inhibition of growth at 10 µM (LOX IMVI [7]): 11.1% | inhibition of growth at 10 µM (U-251): < 10% | inhibition of growth at 10 µM (SNB-75 [8]): < 10% | inhibition of growth at 10 µM (SNB-19): < 10% | inhibition of growth at 10 µM (SF-295 [9]): < 10% | inhibition of growth at 10 µM (HT-29): < 10% | inhibition of growth at 10 µM (HCT-15): < 10% | inhibition of growth at 10 µM (HCT-116 [10]): 17.3% | inhibition of growth at 10 µM [11]: < 10% | inhibition of growth at 10 µM (COLO 205): < 10% | inhibition of growth at 10 µM (A549 [12]): 12.4% | inhibition of growth at 10 µM (SR [13]): 22% | inhibition of growth at 10 µM (K562): < 10% | inhibition of growth at 10 µM (HL-60(TB); read-out: GI): 18% | growth at 10 µM (MDA-MB-468 [14]): 111% | growth at 10 µM [15]: 102% | growth at 10 µM (DU-145): 103% | growth at 10 µM (PC-3 [16]): 76.5% | growth at 10 µM (UO-31): 85.5% | growth at 10 µM (RXF 393 [17]): 112% | growth at 10 µM (CAKI-1): 91.8% | growth at 10 µM (A498): 102% | growth at 10 µM (786-0): 90.7% | growth at 10 µM (OVCAR-4 [18]): 96% | growth at 10 µM (UACC-257): 107% | growth at 10 µM (LOX IMVI [19]): 89% | growth at 10 µM (SNB-75 [20]): 97.7% | growth at 10 µM (SF-295 [21]): 153% | growth at 10 µM (HCT-116 [22]): 82.7% | growth at 10 µM (NCI-H460): 101% | growth at 10 µM (NCI-H322M): 99% | growth at 10 µM (HOP-62): 98.9% | growth at 10 µM (A549 [23]): 87.5% | growth at 10 µM (SR [24]): 78%
